The test system of one data set is ZR-75. The data set is described as follows: Anti-proliferative activity, cell growth inhibition (CellTiterGlo, 72 h). The data set is classed as cell-based, human. To be noted: Homo sapiens; for inhibition at 30 µM: ZR75, quadruplicate, read-out: Cell growth inhibitory activity, ZR-75. On the procedure: (§1) Twenty compounds, i.e. 4a-o and 7a-e, were analyzed for cancer cell growth inhibitory activity. These studies were carried out using cells derived from human lung, colon and breast tumors (A549, HT-29 and ZR-75 cells, respectively). This initial assessment of activity tested each compound in quadruplicate at a single concentration of 30 μM, if solubility permitted.
(§2) A549, HT-29, ZR-75 were obtained from the American Type Culture Collection (ATCC). Cells were harvested from 90-95% confluent 10 cm dishes, and diluted in growth media (RPMI-1640 supplemented with 5% fetal bovine serum). An appropriate concentration of cells were prepared to add 1,250 cells in a volume of 25 µL per well in tissue culture treated Griener 384-well microplates, then incubated overnight at 37°C. Compound 7e was diluted to a concentration of 30 µM in DMSO. Concentrated dosing solutions of twice the final concentration were prepared by dilution of the DMSO stocks 1:500 in growth media. Two-fold serial dilutions were then prepared in medium containing 0.2% DMSO to maintain a constant concentration of vehicle throughout the concentration range of the compound. Each of these was added in an equal volume (25 µL) to four wells on each cell assay plate, along with the vehicle control. The highest concentration for serial dilutions of the positive control (sunitinib) was prepared exactly as the experimental compound 7e. Cells were incubated with the compounds for a further 72 h.
(§3) At the end of the treatment period, assay plates were allowed to cool to RT for 10 min prior to the addition of 25 µL per well Promega CellTiterGlo reagent, followed by additional 10 min incubation at RT. The resulting luminescence was quantitated using a Molecular Devices Spectramax Paradigm.
(§4) Percent growth inhibition was calculated as follows, where 100 represents the viability of vehicle treated control samples:
(§5) The potency of compounds was determined using the non-linear dose response algorithm (four-parameter logistic fit) with GraphPad Prism 5 software.

The test system of another data set is A549. The description is as above. The data set is classed as cell-based, human. The conditions noted are these: Homo sapiens; for inhibition at 30 µM: A549, quadruplicate, read-out: Cell growth inhibitory activity, A-549. On the procedure: as §1, §2, §3, §4, §5
The subject of the next data set is HT-29. Described as above. It is filed as cell-based, human. To be noted: for inhibition at 30 µM: HT-29, quadruplicate, read-out: Cell growth inhibitory activity, HT-29; for IC50: 72 h. On the procedure:
as §1, §2, §3, §4, §5

Data set [1] concerns HT-29, ZR-75 and A-549 cell lines. Description: Average anti-proliferative activity over the three cancer cell lines. It is filed as cell-based, human. The conditions noted are these: average of HT-29, ZR-75, A-549; for inhibition at 30 µM: read-out: Average Growth Inhibition %; for inhibition at 30 µM / Average Growth Inhibition %: 30 μM. On the procedure: as §1
Therefore, they were subjected to quantitative inhibitory concentration 50% (IC50) determination for their cell growth inhibitory activity towards the A549, HT-29 and ZR-75 cancer cell lines.
as §2, §5

Another data set relates to NCI cell lines. More on the design: method as in PMID 17073710, PMID 16860559. The conditions noted are these: against 46 out of 53 NCI cell lines; cited from earlier work.
The target in data set [2] is glycogen synthase kinase 3 beta (GSK-3β). The conditions noted are these: read-out: IC50 GSK-3β; binding to the ATP pocket; cited from earlier work.
For data set [3], the system named is cyclin-dependent kinases (CDKs). The conditions noted are these: read-out: IC50 CDKs; binding to the ATP pocket; cited from earlier work.

Consider 11 molecules from publication PMC5526551, “New hydrazonoindolin-2-ones: Synthesis, exploration of the possible anti-proliferative mechanism of action and encapsulation into PLGA microspheres” (PLoS ONE, 2017).

Molecules are shown by their SMILES. Bounds are passed on as bounds.

Molecule `COc1cc(C=NN=C2C(=O)Nc3ccc(Cl)cc32)cc(OC)c1OC` [Compound 4j, 5-Chloro-3-((3,4,5-trimethoxybenzylidene)hydrazono)indolin-2-one] yielded a melting point of 245 to 247 °C. The inhibition at 30 µM in the data set on ZR-75 came out at 18.1 ± 21.2%. In the data set with A549, the inhibition at 30 µM amounted to 1.7 ± 17.5%. In addition, the inhibition at 30 µM in the data set with HT-29 (Homo sapiens) worked out at 6.9 ± 4.2%. For the same molecule, the inhibition at 30 µM in data set [1] (Homo sapiens) is 8.9%.
As for `COc1ccc(C=NN=C2C(=O)Nc3ccc(Br)cc32)cc1` [Compound 4k, 5-Bromo-3-((4-methoxybenzylidene)hydrazono)indolin-2-one], the melting point fell in the range of 290 to 292 °C. For the same molecule, the inhibition at 30 µM in the data set with ZR-75 was -5.3 ± 18.1%. The inhibition at 30 µM with A549 is -6.9 ± 9.4%. Moreover, the inhibition at 30 µM in the data set on HT-29 (Homo sapiens) is -0.6 ± 7.2%. Besides, in data set [1], the “Average Growth Inhibition %” value is given as “stimulated the growth”. Also, in data set [1] (Homo sapiens), the inhibition at 30 µM is -4.3%.
The molecule `COc1ccc(C=NN=C2C(=O)Nc3ccc(Br)cc32)cc1O` [Compound 4l, 5-Bromo-3-((3-hydroxy-4-methoxybenzylidene)hydrazono)indolin-2-one] yielded a melting point of 278 to 280 °C. In addition, the inhibition at 30 µM in the data set on ZR-75 turned out to be 44.3 ± 18.4%. Further, the inhibition at 30 µM with A549 is 46.6 ± 9.5%. Moreover, the inhibition at 30 µM in the data set with HT-29 (Homo sapiens) was 45.9 ± 9.8%. Moreover, the inhibition at 30 µM in data set [1] (Homo sapiens) came out at 45.6%.
On the same counts, the results for `COc1cc(C=NN=C2C(=O)Nc3ccc(Br)cc32)ccc1O` [Compound 4m, 5-Bromo-3-((4-hydroxy-3-methoxybenzylidene)hydrazono)indolin-2-one] are 285 to 287 °C, 58.7 ± 16%, 83.7 ± 10.3%, 42.1 ± 1.8% and 61.5%.
`COc1ccc(C=NN=C2C(=O)Nc3ccc(Br)cc32)cc1OC` [Compound 4n, 5-Bromo-3-((3,4-dimethoxybenzylidene)hydrazono)indolin-2-one]: the melting point was 280 to 282 °C. In addition, the inhibition at 30 µM in the data set with ZR-75 came out at 12.5 ± 21.9%. Also, the inhibition at 30 µM in the data set on A549 was determined as 0.1 ± 5.1%. For the same molecule, in the data set with HT-29 (Homo sapiens), the inhibition at 30 µM is -2 ± 10.2%. Further, the inhibition at 30 µM in data set [1] (Homo sapiens) amounted to 3.5%.
`COc1cc(C=NN=C2C(=O)Nc3ccc(Br)cc32)cc(OC)c1OC` [Compound 4o, 5-Bromo-3-((3,4,5-trimethoxybenzylidene)hydrazono)indolin-2-one] registered a melting point of 261 to 263 °C. Moreover, the inhibition at 30 µM in the data set on ZR-75 was determined as 3.1 ± 8.2%. For the same molecule, the inhibition at 30 µM with A549 is -3.4 ± 6.6%. Moreover, in the data set on HT-29 (Homo sapiens), the inhibition at 30 µM was -1.1 ± 9%. Further, the “Average Growth Inhibition %” value in data set [1] was “stimulated the growth”. Moreover, the inhibition at 30 µM in data set [1] (Homo sapiens) was -0.5%.
With `CN1C(=O)C(=NN=C2C(=O)Nc3ccc(F)cc32)c2ccccc21` [Compound 7a, 5-Fluoro-3-((1-methyl-2-oxoindolin-3-ylidene)hydrazono)indolin-2-one], the melting point was 295 to 297 °C. Moreover, the inhibition at 30 µM in the data set on ZR-75 turned out to be 78.6 ± 9.9%. Besides, the inhibition at 30 µM in the data set with A549 is 91.6 ± 4.8%. In addition, the inhibition at 30 µM in the data set with HT-29 (Homo sapiens) stood at 84.8 ± 3.6%. Also, in data set [1] (Homo sapiens), the inhibition at 30 µM is 85%.
Regarding `O=C1Nc2ccccc2C1=NN=C1C(=O)N(Cc2ccccc2)c2ccccc21` [Compound 7c, 1-Benzyl-3-((oxoindolin-3-ylidene)hydrazono)indolin-2-one], the melting point is 255 to 257 °C. Also, in the data set on ZR-75, the inhibition at 30 µM worked out at 92.1 ± 3.8%. Moreover, the inhibition at 30 µM in the data set with A549 is 86.6 ± 9.9%. Further, in the data set on HT-29 (Homo sapiens), the inhibition at 30 µM turned out to be 73.8 ± 4.4%. Besides, the inhibition at 30 µM in data set [1] (Homo sapiens) was determined as 84.2%.
Molecule `O=C1Nc2ccc(Cl)cc2C1=NN=C1C(=O)N(Cc2ccccc2)c2ccccc21` [Compound 7d, 1-Benzyl-3-((5-chloro-2-oxoindolin-3-ylidene)hydrazono)indolin-2-one] came in with a melting point of 258 to 260 °C. The same molecule showed a 50% inhibitory concentration (IC50) in the data set on ZR-75 (ZR75, 72 h) of 2.42 µM. For the same molecule, the inhibition at 30 µM in the data set with ZR-75 was found to be 97.8 ± 1.8%. The IC50 with A549 (A549, 72 h, read-out: IC50 A-549) was 4.13 µM. For the same molecule, the inhibition at 30 µM in the data set with A549 amounted to 98.4 ± 0.6%. Moreover, half-maximal inhibition in the data set with HT-29 (IC50) required 3.62 µM. This molecule registered an IC50 in the data set on HT-29 (Homo sapiens, HT-29, 72 h) of 3.82 µM. Besides, in the data set on HT-29 (Homo sapiens), the inhibition at 30 µM was 97 ± 1.8%. Besides, in data set [1] (Homo sapiens), the inhibition at 30 µM stood at 97.7% and the IC50 worked out at 3.39 µM.
Take `Cc1cc(C)c(/C=C2\C(=O)Nc3ccccc32)[nH]1` [Semaxanib]: the GI50 with NCI cell lines is under 0.01 µM.
For the molecule `O=C1Nc2ccccc2/C1=C1/Nc2ccccc2C1=O` [indirubin, Indirubin], the concentration for half-maximal inhibition (IC50) was […] in data set [2] and 75 µM in data set [3].
